Laboratory results published in ChEMBL document CHEMBL1201862, “PubChem BioAssay data set” (2004).
Calls of active or inactive are those of the source.

Key:
Paired box protein Pax-8 = Paired box protein Pax-8 (Homo sapiens, UniProt Q06710); test: inhibitors of PAX8-driven TPO luciferase reporter, dose response, RMG-I cells, cherry-pick (AID 687027); type: functional, cell-based;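 note: luciferase reporter driven by Pax8 target thyroperoxidase promoter measured by SteadyGlo luminescence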
Large T antigen = Large T antigen (Simian virus 40, UniProt P03070); type: functional, Betapolyomavirus macacae;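 note: Confirmatory-stage PubChem screen for compounds that inhibit SV40 T antigen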
Chain of Large T antigen (P03070 whole entry): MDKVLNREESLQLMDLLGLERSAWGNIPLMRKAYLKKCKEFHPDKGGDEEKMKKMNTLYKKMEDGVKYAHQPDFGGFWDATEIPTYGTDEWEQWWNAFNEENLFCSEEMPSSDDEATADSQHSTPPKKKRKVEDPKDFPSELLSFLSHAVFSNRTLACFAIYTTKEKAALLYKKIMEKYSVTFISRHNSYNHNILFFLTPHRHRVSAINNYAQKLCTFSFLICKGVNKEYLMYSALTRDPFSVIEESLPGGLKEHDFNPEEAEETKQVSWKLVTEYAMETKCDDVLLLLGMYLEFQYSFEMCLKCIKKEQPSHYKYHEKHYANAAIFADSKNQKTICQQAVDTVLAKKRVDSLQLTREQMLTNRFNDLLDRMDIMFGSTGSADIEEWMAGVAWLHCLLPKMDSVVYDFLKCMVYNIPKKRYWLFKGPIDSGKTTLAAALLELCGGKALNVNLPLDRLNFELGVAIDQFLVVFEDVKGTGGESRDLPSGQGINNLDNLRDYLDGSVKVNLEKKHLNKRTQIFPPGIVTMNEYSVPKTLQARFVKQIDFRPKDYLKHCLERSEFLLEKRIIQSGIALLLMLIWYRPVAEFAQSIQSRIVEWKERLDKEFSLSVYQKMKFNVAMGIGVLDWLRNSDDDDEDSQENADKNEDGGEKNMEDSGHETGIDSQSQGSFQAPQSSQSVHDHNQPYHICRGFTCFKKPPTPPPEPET

[1] = target: T1, Rac GTPase-activating protein 1 (Homo sapiens, UniProt Q9H0H5); test: MgcRacGAP GTPase-activating activity inhibitors, confirmation, biochemical, ADP Hunter fluorescence, primary and confirmatory (AID 624330); type: functional
T1 sequence (Q9H0H5 whole entry): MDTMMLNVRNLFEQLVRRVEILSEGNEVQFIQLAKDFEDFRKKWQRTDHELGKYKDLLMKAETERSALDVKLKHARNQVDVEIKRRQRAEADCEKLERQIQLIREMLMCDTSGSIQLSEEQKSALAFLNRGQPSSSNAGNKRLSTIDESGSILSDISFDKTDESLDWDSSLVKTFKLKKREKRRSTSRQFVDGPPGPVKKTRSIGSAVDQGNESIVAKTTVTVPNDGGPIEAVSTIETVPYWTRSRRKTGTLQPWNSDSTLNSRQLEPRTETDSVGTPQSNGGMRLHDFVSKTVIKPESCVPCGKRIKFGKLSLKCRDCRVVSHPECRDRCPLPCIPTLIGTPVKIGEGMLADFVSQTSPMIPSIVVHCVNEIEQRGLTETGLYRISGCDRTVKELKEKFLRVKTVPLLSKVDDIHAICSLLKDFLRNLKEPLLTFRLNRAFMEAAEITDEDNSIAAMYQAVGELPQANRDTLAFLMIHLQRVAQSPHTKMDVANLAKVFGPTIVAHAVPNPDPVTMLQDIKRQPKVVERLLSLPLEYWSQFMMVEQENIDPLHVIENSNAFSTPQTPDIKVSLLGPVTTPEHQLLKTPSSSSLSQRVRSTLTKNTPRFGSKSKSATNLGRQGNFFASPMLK

[2] = Luminescence Cell-Based Dose Confirmation HTS to Identify Activators of 5'UTR Stem-Loop Driven Alpha-Synuclein mRNA Translation in H4 Neuroglioblastoma Cells. [Related pubchem assays: 1829 (Project Summary), 1814 (Primary HTS)]; type: functional
[3] = Luminescence Cell-Based Dose Response HTS to Identify Activators of Luciferase Translation or Activity in H4 […] Cells. [Related pubchem assays: 1829 (Project Summary), 1814 (Primary HTS)]; type: functional
H4 = test: Luminescence Cell-Based Dose Response HTS to Identify Activators of 5'UTR Stem-Loop Driven Prion Protein mRNA Translation in H4 Neuroglioblastoma Cells. [Related pubchem assays: 1829 (Project Summary), 1814 (Primary HTS)]; type: functional; settings: Homo sapiens
[4] = target: FAD-linked sulfhydryl oxidase ALR (Homo sapiens, UniProt P55789); test: inhibitors of human ALR sulfhydryl oxidase, dose response, biochemical, H2O2 detection, luminescence, cherry-pick (AID 493248)
Chain of FAD-linked sulfhydryl oxidase ALR (P55789 whole entry): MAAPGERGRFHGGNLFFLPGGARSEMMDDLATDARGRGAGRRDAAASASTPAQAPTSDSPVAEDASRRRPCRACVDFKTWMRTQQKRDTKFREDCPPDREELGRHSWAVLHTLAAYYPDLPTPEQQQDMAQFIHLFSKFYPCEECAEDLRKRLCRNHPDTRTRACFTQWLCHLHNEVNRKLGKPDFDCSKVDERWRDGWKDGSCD

[5] = target: T2, Corticotropin-releasing factor receptor 2/Corticotropin-releasing factor-binding protein (Homo sapiens, UniProt P24387+Q13324); test: Dose Response confirmation of uHTS hits for small molecule antagonists of the CRF-binding protein and CRF-R2 receptor complex.; type: functional; settings: read-out: IC50_Mean
T2 sequence (Q13324 whole entry): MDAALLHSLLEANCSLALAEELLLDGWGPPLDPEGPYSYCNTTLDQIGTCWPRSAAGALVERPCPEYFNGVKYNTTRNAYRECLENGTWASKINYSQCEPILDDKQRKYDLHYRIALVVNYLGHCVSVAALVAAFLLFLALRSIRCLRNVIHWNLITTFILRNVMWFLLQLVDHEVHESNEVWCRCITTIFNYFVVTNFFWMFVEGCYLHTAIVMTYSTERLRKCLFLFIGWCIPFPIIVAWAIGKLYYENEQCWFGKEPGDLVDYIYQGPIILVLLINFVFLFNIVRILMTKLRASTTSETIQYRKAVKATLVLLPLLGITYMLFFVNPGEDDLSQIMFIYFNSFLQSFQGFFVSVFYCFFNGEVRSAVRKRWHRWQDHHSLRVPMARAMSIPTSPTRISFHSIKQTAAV
T2 sequence (P24387 whole entry): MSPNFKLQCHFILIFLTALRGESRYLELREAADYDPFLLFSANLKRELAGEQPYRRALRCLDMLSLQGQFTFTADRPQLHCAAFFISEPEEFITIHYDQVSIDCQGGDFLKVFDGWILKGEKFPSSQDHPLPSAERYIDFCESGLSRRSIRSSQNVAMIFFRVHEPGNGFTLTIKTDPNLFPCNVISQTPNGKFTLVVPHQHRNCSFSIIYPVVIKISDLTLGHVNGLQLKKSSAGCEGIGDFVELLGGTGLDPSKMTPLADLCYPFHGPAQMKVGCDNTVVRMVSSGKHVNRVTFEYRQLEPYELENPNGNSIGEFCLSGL

[6] = target: T2, Corticotropin-releasing factor receptor 2/Corticotropin-releasing factor-binding protein; test: activators of CRF receptor 2 with binding protein – uHTS hits, confirmation (AID 602473); type: functional; settings: read-out: EC50_Mean
[7] = target: T3, Replicative DNA helicase DnaB (Mycobacterium tuberculosis, UniProt P9WMR3); test: DnaB intein splicing inhibitors, dose response, biochemical, cell-free fluorescence (AID 449749); type: functional
T3 sequence (P9WMR3 whole entry): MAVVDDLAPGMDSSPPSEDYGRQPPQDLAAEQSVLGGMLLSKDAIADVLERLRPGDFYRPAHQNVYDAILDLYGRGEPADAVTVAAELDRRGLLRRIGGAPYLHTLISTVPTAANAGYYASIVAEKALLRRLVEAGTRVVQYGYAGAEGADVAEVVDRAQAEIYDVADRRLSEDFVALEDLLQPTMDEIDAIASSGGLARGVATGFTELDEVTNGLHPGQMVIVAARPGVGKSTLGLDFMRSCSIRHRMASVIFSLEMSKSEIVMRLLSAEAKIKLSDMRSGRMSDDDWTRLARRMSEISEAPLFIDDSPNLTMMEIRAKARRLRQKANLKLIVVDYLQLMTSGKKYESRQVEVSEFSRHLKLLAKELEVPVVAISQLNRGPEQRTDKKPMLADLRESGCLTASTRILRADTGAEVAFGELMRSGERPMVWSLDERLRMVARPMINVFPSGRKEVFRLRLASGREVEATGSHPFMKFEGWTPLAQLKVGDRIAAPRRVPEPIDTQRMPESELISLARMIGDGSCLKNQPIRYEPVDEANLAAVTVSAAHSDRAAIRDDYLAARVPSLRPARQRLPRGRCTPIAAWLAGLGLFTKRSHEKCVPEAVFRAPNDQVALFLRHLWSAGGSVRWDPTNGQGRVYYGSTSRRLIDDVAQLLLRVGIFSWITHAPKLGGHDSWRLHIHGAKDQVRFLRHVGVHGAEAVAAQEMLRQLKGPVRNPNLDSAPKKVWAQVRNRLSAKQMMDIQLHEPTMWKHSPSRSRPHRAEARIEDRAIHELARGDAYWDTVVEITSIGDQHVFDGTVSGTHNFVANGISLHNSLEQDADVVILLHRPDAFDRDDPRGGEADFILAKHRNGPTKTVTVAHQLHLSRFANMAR

Protein RecA = target: T4, Protein RecA (Mycobacterium tuberculosis, UniProt P9WHJ3); test: Fluorescence Cell-Free Homogeneous Dose Retest to Identify Inhibitors of RecA-Intein Splicing Activity. [Related pubchem assays (depositor defined):AID2097, AID2223, AID489010, AID492950]; type: functional
T4 sequence (P9WHJ3 whole entry): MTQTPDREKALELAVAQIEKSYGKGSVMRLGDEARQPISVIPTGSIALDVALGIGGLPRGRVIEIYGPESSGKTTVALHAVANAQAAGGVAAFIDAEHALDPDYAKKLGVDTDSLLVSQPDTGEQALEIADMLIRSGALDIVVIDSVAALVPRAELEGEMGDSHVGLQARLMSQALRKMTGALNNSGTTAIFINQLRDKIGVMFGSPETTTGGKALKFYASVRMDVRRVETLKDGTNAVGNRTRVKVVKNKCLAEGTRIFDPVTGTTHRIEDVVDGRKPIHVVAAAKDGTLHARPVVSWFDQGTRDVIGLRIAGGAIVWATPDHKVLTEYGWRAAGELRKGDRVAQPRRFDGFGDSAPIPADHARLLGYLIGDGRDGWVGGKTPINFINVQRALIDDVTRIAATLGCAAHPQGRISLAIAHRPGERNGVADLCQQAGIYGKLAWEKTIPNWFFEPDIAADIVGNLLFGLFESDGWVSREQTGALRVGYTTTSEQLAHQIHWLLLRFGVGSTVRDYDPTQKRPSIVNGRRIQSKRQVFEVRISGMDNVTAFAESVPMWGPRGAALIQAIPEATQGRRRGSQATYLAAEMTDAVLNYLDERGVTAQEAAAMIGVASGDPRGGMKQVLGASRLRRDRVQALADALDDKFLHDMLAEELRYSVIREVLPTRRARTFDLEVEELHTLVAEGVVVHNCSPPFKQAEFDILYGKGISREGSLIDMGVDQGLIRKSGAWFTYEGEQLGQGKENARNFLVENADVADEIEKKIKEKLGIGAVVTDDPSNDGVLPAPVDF

[8] = growth suppression of beta-catenin-knockout colon cells, dose response, cell-based, HCT116, human colon tumor (AID 1045); type: functional;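 note: HCT116 colon tumor cells with beta catenin knocked out; cells exposed to compound for 60 hours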
[9] = Luminescence Cell-Based Dose Response HTS to Identify Inhibitors of 5'UTR Stem-Loop Driven Prion Protein mRNA Translation in H4 Neuroglioblastoma Cells. [Related pubchem assays: 1827 (Project Summary), 1813 (Primary HTS)]; type: functional
[10] = inhibitors of SNCA 5'UTR-driven reporter translation, confirmation, H4 neuroglioma cells, luminescence (AID 1988); type: functional, cell-based
Cytochrome P450 2D6 = Cytochrome P450 2D6 (Homo sapiens, UniProt P10635);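 note: CYP2D6 member of a cytochrome P450 panel assay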
Chain of Cytochrome P450 2D6 (P10635 whole entry): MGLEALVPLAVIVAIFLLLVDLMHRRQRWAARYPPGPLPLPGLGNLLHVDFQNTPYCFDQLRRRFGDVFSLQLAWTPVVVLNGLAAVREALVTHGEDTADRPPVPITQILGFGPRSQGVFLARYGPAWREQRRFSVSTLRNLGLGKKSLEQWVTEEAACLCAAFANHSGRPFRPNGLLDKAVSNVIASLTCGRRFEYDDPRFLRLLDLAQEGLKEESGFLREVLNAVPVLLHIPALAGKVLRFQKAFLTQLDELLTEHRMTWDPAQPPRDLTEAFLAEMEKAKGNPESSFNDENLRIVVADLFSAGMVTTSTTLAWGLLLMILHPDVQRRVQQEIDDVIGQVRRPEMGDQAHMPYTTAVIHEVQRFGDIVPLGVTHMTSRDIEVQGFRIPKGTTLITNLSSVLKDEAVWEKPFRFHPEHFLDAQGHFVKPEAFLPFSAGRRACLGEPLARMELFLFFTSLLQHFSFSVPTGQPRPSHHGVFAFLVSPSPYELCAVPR

Chain of Paired box protein Pax-8 (Q06710 whole entry): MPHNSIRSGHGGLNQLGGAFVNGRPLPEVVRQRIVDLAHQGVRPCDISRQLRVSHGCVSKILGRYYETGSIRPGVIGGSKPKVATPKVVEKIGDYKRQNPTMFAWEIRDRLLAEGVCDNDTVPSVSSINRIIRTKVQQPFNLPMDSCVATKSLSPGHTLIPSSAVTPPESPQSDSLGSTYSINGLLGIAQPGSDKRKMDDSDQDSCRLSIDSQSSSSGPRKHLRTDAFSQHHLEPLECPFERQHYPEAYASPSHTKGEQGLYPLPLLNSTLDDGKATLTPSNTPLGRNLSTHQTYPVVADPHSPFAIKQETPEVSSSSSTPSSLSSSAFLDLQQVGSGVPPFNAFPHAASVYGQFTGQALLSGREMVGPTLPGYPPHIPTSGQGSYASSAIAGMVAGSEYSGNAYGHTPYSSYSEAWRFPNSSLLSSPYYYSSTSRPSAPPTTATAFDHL

## COc1ccc(S(=O)(=O)N2CCCCN3[C@H](C2)[C@@H](c2ccc(C#CC(C)C)cc2)[C@@H]3CO)cc1
Paired box protein Pax-8
  AC50: 6.14 µM (active)

## C[C@@H]1CN([C@@H](C)CO)C(=O)c2cc(NS(=O)(=O)c3ccc(Cl)cc3)ccc2O[C@@H](C)CCCCO[C@H]1CN(C)Cc1ccc(C(F)(F)F)cc1
Paired box protein Pax-8
  AC50: 8.29 µM (active)

## CCOC(=O)C1=C(O)/C(=C\c2ccc(O)c(OCC)c2)N=C1C
Large T antigen
  IC50: 9.94 µM (active)
[1]
  IC50: 43.3 µM (active)

## COc1cc(C#CC#CCN2CCCCC2)ccc1O
[2]
  EC50: 6.87 µM (active)
[3]
  EC50: 6.95 µM (active)
H4
  EC50: > 120 µM (not active)
Large T antigen
  IC50: 10.3 µM (active)
[4]
  AC50: 3.57 µM (active)

## Nc1nc(-c2ccc3c(c2)OCCO3)cs1
[5]
  IC50: > 47.1 µM (inactive)
[6]
  EC50: > 53 µM (inactive)

## CC(=O)Nc1ccc(S(=O)(=O)Nc2nc3ccccc3nc2Nc2ccc(N)cc2)cc1
Large T antigen
  IC50: 18.5 µM (active)

## CC(C)CC#Cc1ccc2c(c1)O[C@@H](CN(C)Cc1ccncc1)[C@H](C)CN([C@@H](C)CO)S2(=O)=O
Paired box protein Pax-8
  AC50: 5.97 µM (active)

## CN1C(=O)NC(c2ccc(O)cc2)C2=C1CN(c1ccc(O)cc1)C2=O (stereo unspecified)
Large T antigen
  IC50: 8.64 µM (active)
[1]
  IC50: 34.6 µM (active)

## COc1ccccc1S(=O)(=O)N(C)C[C@@H]1Oc2cc(C#CCC3CCCC3)ccc2S(=O)(=O)N([C@@H](C)CO)C[C@@H]1C
Paired box protein Pax-8
  AC50: 6.16 µM (active)

## CCn1c(SCC(=O)N/N=C/c2ccc(O)c(OC)c2)nc2ccccc21
Large T antigen
  IC50: 20.4 µM (active)

## COc1ccc(NC(=O)CN2CCC3(O)CCCCC3C2c2cc(OC)ccc2OC)cc1 (stereo unspecified)
[5]
  IC50: > 47.1 µM (inactive)
[6]
  EC50: > 53 µM (inactive)

## CCCC1=Nc2nc(C)nn2C(c2cccnc2)/C1=C(\O)OCC (stereo unspecified)
[5]
  IC50: > 47.1 µM (inactive)
[6]
  EC50: > 53 µM (inactive)

## Cc1ccc(S(=O)(=O)NN=Cc2c(O)ccc3ccccc23)cc1
[5]
  IC50: > 47.1 µM (inactive)
[6]
  EC50: > 53 µM (inactive)

## O=C(NC(=S)N1CCN(c2ccc(O)cc2)CC1)c1cccs1
Large T antigen
  IC50: 5.39 µM (active)

## CCOc1cc(C(c2c(C)n[nH]c2O)c2c(C)n[nH]c2O)ccc1OC(=O)c1cccc([N+](=O)[O-])c1
Large T antigen
  IC50: > 100 µM (active)
[7]
  AC50: 0.365 µM (active)
Protein RecA
  EC50: 0.205 µM (active)

## CCOc1ccc(/C=N/NC(=O)CSc2ccccn2)cc1O
Large T antigen
  IC50: 17.7 µM (active)

## CC(=O)ON1C(C)(C)CC(OC(=O)c2ccccc2)CC1(C)C
[8]
  EC50: 124 µM (active)

## O=C(CCl)Nc1cc2[nH]c(O)nc2cc1Br
Paired box protein Pax-8
  AC50: 3.95 µM (active)

## CCOC(=O)C1(C(=O)OCC)CCN(S(=O)(=O)c2ccccc2)CC1
[5]
  IC50: > 47.1 µM (inactive)
[6]
  EC50: > 53 µM (inactive)

## O=C(O)c1cccc(N/N=C/c2cccc3ccccc23)c1
[9]
  EC50: 4.51 µM (active)
[10]
  EC50: 1.5 µM (active)

## Cc1cc(SCC(=O)Nc2cccc(S(N)(=O)=O)c2)c(C)cc1Br
[5]
  IC50: > 47.1 µM (inactive)
[6]
  EC50: > 53 µM (inactive)

## N#C/C(=C\c1ccc(O)c(O)c1)C(=O)NCCc1ccccc1
Large T antigen
  IC50: 7.1 µM (active)
Cytochrome P450 2D6
  AC50: 39.8 µM (inconclusive)

## CC(C)CNC(=O)CN1c2cccc3cccc(c23)S1(=O)=O
[5]
  IC50: > 47.1 µM (inactive)
[6]
  EC50: > 53 µM (inactive)

## Nc1ccc(NC(=O)NC2CCCCC2)cc1
Large T antigen
  IC50: 10.5 µM (active)
